Test results taken from ChEMBL document CHEMBL4507272 (2021).

What was measured:
[1] = molecular target: AP2-associated protein kinase 1 (Homo sapiens) (UniProt Q2M2I8); conditions: Compound concentration 1000.0 nM
[2] = tested on: Tyrosine-protein kinase ABL1 (Homo sapiens), P00519 [F317I]; conditions: Compound concentration 1000.0 nM
[3] = tested on: Tyrosine-protein kinase ABL1 (Homo sapiens), P00519 [H396P]; conditions: Compound concentration 1000.0 nM
[4] = molecular target: 5'-AMP-activated protein kinase catalytic subunit alpha-1 (Homo sapiens) (UniProt Q13131); conditions: Compound concentration 1000.0 nM
[5] = molecular target: Aurora kinase C (Homo sapiens) (UniProt Q9UQB9); conditions: Compound concentration 1000.0 nM
[6] = molecular target: Bone morphogenetic protein receptor type-2 (Homo sapiens) (UniProt Q13873); conditions: Compound concentration 1000.0 nM
[7] = molecular target: Protein-tyrosine kinase 6 (Homo sapiens) (UniProt Q13882); conditions: Compound concentration 1000.0 nM
[8] = molecular target: Calcium/calmodulin-dependent protein kinase type II subunit alpha (Homo sapiens) (UniProt Q9UQM7); conditions: Compound concentration 1000.0 nM
[9] = molecular target: Cyclin-dependent kinase 2 (Homo sapiens) (UniProt P24941); conditions: Compound concentration 1000.0 nM
[10] = molecular target: Cyclin-dependent kinase 5 (Homo sapiens) (UniProt Q00535); conditions: Compound concentration 1000.0 nM
[11] = molecular target: Cyclin-dependent kinase-like 3 (Homo sapiens) (UniProt Q8IVW4); conditions: Compound concentration 1000.0 nM
[12] = molecular target: Citron Rho-interacting kinase (Homo sapiens) (UniProt O14578); conditions: Compound concentration 1000.0 nM
[13] = molecular target: Tyrosine-protein kinase CSK (Homo sapiens) (UniProt P41240); conditions: Compound concentration 1000.0 nM
[14] = molecular target: Casein kinase I isoform gamma-2 (Homo sapiens) (UniProt P78368); conditions: Compound concentration 1000.0 nM
[15] = molecular target: Casein kinase I isoform gamma-3 (Homo sapiens) (UniProt Q9Y6M4); conditions: Compound concentration 1000.0 nM
[16] = tested on: Receptor-type tyrosine-protein kinase FLT3 (Homo sapiens), P36888 [D835V]; conditions: Compound concentration 1000.0 nM
[17] = molecular target: Tyrosine-protein kinase HCK (Homo sapiens) (UniProt P08631); conditions: Compound concentration 1000.0 nM
[18] = molecular target: Inhibitor of nuclear factor kappa-B kinase subunit beta (Homo sapiens) (UniProt O14920); conditions: Compound concentration 1000.0 nM
[19] = molecular target: Tyrosine-protein kinase ITK/TSK (Homo sapiens) (UniProt Q08881); conditions: Compound concentration 1000.0 nM
[20] = molecular target: Mitogen-activated protein kinase 10 (Homo sapiens) (UniProt P53779); conditions: Compound concentration 1000.0 nM
[21] = molecular target: Mitogen-activated protein kinase kinase kinase kinase 2 (Homo sapiens) (UniProt Q12851); conditions: Compound concentration 1000.0 nM
[22] = molecular target: Mitogen-activated protein kinase kinase kinase kinase 5 (Homo sapiens) (UniProt Q9Y4K4); conditions: Compound concentration 1000.0 nM
[23] = molecular target: MAP/microtubule affinity-regulating kinase 3 (Homo sapiens) (UniProt P27448); conditions: Compound concentration 1000.0 nM
[24] = molecular target: Serine/threonine-protein kinase 3 (Homo sapiens) (UniProt Q13188); conditions: Compound concentration 1000.0 nM
[25] = molecular target: Serine/threonine-protein kinase OSR1 (Homo sapiens) (UniProt O95747); conditions: Compound concentration 1000.0 nM
[26] = molecular target: Serine/threonine-protein kinase PAK 2 (Homo sapiens) (UniProt Q13177); conditions: Compound concentration 1000.0 nM
[27] = molecular target: Serine/threonine-protein kinase PAK 3 (Homo sapiens) (UniProt O75914); conditions: Compound concentration 1000.0 nM
[28] = molecular target: Serine/threonine-protein kinase PAK 6 (Homo sapiens) (UniProt Q9NQU5); conditions: Compound concentration 1000.0 nM
[29] = molecular target: Serine/threonine-protein kinase PAK 5 (Homo sapiens) (UniProt Q9P286); conditions: Compound concentration 1000.0 nM
[30] = tested on: Phosphatidylinositol 4,5-bisphosphate 3-kinase catalytic subunit alpha isoform (Homo sapiens), P42336 [E542K]; conditions: Compound concentration 1000.0 nM
[31] = tested on: Phosphatidylinositol 4,5-bisphosphate 3-kinase catalytic subunit alpha isoform (Homo sapiens), P42336 [H1047L]; conditions: Compound concentration 1000.0 nM
[32] = tested on: Phosphatidylinositol 4,5-bisphosphate 3-kinase catalytic subunit alpha isoform (Homo sapiens), P42336 [M1043I]; conditions: Compound concentration 1000.0 nM
[33] = molecular target: Serine/threonine-protein kinase PLK3 (Homo sapiens) (UniProt Q9H4B4); conditions: Compound concentration 1000.0 nM
[34] = molecular target: Protein-tyrosine kinase 2-beta (Homo sapiens) (UniProt Q14289); conditions: Compound concentration 1000.0 nM
[35] = molecular target: RAF proto-oncogene serine/threonine-protein kinase (Homo sapiens) (UniProt P04049); conditions: Compound concentration 1000.0 nM
[36] = molecular target: Ribosomal protein S6 kinase alpha-5 (Homo sapiens) (UniProt O75582); conditions: Compound concentration 1000.0 nM
[37] = molecular target: Ribosomal protein S6 kinase alpha-6 (Homo sapiens) (UniProt Q9UK32); conditions: Compound concentration 1000.0 nM
[38] = molecular target: Serine/threonine-protein kinase 35 (Homo sapiens) (UniProt Q8TDR2); conditions: Compound concentration 1000.0 nM
[39] = molecular target: TGF-beta receptor type-2 (Homo sapiens) (UniProt P37173); conditions: Compound concentration 1000.0 nM
[40] = molecular target: Serine/threonine-protein kinase WNK2 (Homo sapiens) (UniProt Q9Y3S1); conditions: Compound concentration 1000.0 nM
[41] = molecular target: Serine/threonine-protein kinase 32B (Homo sapiens) (UniProt Q9NY57); conditions: Compound concentration 1000.0 nM
[42] = molecular target: 5-hydroxytryptamine receptor 2A (Homo sapiens) (UniProt P28223); conditions: Compound concentration 10.0 uM
[43] = molecular target: D(2) dopamine receptor (Homo sapiens) (UniProt P14416); conditions: Compound concentration 10.0 uM
[44] = molecular target: D(1B) dopamine receptor (Homo sapiens) (UniProt P21918); conditions: Compound concentration 10.0 uM
[45] = molecular target: Histamine H1 receptor (Homo sapiens) (UniProt P35367); conditions: Compound concentration 10.0 uM

Serine/threonine-protein kinase PAK 5 (Homo sapiens), sequence (Q9P286 whole entry, looked up, canonical isoform): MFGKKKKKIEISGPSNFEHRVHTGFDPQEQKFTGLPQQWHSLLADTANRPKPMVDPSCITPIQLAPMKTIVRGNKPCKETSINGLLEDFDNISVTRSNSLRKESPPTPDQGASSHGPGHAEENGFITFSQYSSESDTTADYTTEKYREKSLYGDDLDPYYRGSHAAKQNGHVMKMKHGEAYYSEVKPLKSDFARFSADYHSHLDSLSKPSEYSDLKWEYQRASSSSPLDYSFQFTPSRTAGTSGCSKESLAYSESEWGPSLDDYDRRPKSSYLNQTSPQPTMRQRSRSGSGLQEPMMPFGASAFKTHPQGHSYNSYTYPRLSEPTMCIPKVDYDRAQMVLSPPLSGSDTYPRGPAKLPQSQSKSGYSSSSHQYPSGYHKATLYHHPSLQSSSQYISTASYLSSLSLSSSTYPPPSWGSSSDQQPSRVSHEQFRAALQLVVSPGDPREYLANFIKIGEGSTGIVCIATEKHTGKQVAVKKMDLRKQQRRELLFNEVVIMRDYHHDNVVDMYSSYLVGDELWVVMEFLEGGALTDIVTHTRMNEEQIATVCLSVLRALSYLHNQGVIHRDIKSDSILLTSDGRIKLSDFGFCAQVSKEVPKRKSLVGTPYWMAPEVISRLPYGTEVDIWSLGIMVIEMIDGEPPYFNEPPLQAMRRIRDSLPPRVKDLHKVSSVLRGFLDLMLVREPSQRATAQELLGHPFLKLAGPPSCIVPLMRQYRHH
D(2) dopamine receptor (Homo sapiens), sequence (P14416 whole entry): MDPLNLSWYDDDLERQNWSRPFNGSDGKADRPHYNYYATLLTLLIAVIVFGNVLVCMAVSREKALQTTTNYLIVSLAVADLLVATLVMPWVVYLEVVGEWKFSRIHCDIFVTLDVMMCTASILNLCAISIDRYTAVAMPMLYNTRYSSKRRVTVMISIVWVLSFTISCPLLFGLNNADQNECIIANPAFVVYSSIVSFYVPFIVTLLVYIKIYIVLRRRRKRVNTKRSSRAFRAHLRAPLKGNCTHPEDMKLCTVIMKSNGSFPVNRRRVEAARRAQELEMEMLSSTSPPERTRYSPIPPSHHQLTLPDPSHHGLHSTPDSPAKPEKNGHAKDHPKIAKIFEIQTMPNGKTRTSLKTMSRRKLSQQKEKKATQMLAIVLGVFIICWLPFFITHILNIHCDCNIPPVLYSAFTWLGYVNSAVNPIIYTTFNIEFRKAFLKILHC
Mitogen-activated protein kinase kinase kinase kinase 2 (Homo sapiens), sequence (Q12851 whole entry): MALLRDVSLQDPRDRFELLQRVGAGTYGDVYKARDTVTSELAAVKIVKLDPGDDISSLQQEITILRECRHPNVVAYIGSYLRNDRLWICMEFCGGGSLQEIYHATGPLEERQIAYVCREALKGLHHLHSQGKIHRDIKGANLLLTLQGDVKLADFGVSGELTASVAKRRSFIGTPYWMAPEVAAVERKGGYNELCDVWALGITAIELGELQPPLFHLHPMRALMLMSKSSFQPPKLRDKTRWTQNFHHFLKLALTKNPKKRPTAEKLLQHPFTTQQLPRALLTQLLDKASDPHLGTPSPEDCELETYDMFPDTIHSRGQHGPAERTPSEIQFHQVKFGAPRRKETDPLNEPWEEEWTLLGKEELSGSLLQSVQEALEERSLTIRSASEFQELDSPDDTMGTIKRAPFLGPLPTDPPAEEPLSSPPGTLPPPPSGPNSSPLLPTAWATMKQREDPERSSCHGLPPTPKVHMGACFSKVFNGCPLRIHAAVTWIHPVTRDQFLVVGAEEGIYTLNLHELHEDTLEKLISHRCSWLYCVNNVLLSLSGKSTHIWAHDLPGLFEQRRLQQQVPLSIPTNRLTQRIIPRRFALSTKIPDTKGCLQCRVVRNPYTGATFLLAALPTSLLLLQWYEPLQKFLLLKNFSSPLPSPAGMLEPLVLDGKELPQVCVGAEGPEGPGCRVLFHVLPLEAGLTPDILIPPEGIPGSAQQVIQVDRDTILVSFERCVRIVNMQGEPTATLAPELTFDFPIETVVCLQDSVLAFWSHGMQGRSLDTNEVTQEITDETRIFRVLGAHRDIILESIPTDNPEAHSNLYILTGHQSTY
Inhibitor of nuclear factor kappa-B kinase subunit beta (Homo sapiens), sequence (O14920 whole entry): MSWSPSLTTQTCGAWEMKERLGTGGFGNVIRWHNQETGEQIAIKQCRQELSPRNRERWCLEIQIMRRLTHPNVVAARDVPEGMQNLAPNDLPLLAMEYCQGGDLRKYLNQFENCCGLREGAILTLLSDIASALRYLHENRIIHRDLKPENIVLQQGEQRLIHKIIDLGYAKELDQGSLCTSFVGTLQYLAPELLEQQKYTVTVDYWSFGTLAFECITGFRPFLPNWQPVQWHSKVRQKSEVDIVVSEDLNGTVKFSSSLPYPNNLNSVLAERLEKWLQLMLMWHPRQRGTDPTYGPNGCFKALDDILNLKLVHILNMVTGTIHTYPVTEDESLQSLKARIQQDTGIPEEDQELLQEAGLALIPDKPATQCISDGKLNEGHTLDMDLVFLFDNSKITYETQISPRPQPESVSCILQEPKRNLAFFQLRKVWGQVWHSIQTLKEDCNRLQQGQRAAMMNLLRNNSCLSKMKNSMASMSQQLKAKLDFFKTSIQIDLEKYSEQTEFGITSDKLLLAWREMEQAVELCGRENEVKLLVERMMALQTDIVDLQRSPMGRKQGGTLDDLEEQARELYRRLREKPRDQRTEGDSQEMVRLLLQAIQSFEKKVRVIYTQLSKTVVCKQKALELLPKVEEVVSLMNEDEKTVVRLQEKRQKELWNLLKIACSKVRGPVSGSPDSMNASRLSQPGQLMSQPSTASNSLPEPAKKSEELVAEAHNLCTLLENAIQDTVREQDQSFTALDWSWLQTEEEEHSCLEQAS
Cyclin-dependent kinase 5 (Homo sapiens), sequence (Q00535 whole entry, looked up): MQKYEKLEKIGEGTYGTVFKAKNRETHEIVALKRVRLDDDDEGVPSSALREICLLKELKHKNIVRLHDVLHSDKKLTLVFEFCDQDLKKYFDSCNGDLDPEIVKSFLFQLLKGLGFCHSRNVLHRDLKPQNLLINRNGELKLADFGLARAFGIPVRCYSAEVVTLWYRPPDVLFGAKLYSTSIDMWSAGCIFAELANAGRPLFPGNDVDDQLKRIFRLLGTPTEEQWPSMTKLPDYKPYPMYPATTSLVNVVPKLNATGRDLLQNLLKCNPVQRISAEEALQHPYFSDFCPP
5-hydroxytryptamine receptor 2A (Homo sapiens), sequence (P28223 whole entry): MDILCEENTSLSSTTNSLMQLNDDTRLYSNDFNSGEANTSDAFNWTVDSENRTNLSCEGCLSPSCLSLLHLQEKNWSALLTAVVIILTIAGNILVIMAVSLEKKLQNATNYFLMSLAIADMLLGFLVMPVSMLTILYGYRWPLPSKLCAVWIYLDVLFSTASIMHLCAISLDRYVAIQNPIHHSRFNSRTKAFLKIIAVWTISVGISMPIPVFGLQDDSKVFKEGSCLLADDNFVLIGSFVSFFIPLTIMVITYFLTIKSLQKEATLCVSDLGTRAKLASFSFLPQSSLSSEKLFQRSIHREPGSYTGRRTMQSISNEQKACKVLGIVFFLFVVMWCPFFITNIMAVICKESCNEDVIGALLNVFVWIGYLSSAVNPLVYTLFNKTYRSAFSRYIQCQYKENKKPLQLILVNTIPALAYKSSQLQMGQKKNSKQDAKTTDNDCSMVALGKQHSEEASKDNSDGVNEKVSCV
Calcium/calmodulin-dependent protein kinase type II subunit alpha (Homo sapiens), sequence (Q9UQM7 whole entry): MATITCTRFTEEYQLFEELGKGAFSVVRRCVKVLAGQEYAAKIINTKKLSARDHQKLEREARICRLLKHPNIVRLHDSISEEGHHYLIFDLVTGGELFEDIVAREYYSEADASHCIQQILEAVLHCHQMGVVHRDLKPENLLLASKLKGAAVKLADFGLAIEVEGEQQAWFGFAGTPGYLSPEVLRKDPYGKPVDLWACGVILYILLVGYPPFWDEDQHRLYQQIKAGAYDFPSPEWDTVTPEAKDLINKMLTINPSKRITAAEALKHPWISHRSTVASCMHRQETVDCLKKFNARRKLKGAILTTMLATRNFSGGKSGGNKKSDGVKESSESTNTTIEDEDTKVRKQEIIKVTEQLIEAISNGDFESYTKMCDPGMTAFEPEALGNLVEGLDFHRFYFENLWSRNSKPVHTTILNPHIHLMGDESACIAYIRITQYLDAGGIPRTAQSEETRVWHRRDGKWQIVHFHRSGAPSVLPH
Phosphatidylinositol 4,5-bisphosphate 3-kinase catalytic subunit alpha isoform (Homo sapiens), P42336 [H1047L], sequence (P42336 whole entry H1047L, canonical isoform): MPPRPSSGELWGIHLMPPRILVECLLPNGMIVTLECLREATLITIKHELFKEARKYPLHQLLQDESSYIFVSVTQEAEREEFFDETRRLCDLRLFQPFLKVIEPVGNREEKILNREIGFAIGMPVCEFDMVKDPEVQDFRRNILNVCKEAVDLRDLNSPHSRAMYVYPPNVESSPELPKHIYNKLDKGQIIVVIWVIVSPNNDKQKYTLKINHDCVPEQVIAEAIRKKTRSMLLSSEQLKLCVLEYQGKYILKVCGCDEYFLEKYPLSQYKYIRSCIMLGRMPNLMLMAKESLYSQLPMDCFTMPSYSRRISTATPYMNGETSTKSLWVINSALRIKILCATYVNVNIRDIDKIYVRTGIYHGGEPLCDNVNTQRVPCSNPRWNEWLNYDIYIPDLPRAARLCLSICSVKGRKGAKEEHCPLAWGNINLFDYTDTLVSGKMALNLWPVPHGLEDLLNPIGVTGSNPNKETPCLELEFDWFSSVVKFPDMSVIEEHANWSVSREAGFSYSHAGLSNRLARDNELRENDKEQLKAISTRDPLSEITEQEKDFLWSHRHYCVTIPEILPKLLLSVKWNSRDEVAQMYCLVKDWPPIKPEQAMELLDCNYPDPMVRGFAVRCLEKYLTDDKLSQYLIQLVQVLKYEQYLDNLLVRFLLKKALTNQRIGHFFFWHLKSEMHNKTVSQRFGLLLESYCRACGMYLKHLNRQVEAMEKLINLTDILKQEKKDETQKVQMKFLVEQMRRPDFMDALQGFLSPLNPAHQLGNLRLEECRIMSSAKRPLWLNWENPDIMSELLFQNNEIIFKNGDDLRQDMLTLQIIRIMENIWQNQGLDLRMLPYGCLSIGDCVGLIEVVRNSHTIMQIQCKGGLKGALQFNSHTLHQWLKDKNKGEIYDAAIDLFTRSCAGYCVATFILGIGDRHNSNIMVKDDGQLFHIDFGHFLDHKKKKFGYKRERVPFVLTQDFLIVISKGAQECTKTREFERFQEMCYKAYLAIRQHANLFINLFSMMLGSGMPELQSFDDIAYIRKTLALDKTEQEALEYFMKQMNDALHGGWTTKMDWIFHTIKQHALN

CC(=O)C1=C(C)N(c2cccc(C(F)(F)F)c2)C(=O)N[C@@H]1c1ccc(C#N)nc1 [BAY-678]
inactive: residual activity [1] 100% | residual activity [2] 100% | residual activity [3] 100% | residual activity [4] 85.4% | residual activity [5] 100% | residual activity [6] 100% | residual activity [7] 100% | residual activity [8] 92.5% | residual activity [9] 100% | residual activity [10] 100% | residual activity [11] 98.5% | residual activity [12] 77.6% | residual activity [13] 90% | residual activity [14] 94.6% | residual activity [15] 100% | residual activity [16] 64.2% | residual activity [17] 87.7% | residual activity [18] 100% | residual activity [19] 90.4% | residual activity [20] 100% | residual activity [21] 100% | residual activity [22] 100% | residual activity [23] 100% | residual activity [24] 93.1% | residual activity [25] 100% | residual activity [26] 98.2% | residual activity [27] 86.3% | residual activity [28] 92.7% | residual activity [29] 96.2% | residual activity [30] 100% | residual activity [31] 69% | residual activity [32] 100% | residual activity [33] 84.2% | residual activity [34] 100% | residual activity [35] 100% | residual activity [36] 83.4% | residual activity [37] 100% | residual activity [38] 85.9% | residual activity [39] 67.8% | residual activity [40] 94% | residual activity [41] 100% | inhibition [42] -0.427% | inhibition [43] 0.569% | inhibition [44] 0.739% | inhibition [45] 34.1%
